Ki data for 8 molecules are collected here from patent publication US8158785B2, “5,7-disubstituted[1.3]thiazolo [4,5-D] pyrimidin-2(3H)-amine derivatives and their use in therapy” (AstraZeneca AB, priority 2006, dated 2012).

For this experiment, the target named is T1, hCX3CR1 (Homo sapiens, UniProt P49238).
T1 construct: expressed in transfected cells; host or cells: HEKS 293 (human embryonic kidney suspension) cells stably expressing chimeric G-protein Gαqi5
T1 sequence (P49238 1-355): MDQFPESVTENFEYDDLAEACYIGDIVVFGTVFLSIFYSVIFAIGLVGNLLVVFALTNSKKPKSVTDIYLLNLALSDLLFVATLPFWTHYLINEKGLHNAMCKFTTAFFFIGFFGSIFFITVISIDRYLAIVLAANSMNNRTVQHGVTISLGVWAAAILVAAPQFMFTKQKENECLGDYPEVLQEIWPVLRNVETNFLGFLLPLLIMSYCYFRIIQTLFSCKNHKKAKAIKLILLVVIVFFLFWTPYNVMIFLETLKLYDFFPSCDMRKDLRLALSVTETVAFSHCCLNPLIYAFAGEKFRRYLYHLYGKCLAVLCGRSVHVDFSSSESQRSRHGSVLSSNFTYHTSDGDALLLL
The experiment is described as follows: in vitro hCX3CR1 binding assay ([125I]-fractalkine competition binding, membranes). Conditions: competition with 10 pM [125I]-fractalkine, membranes of HEKS 293 cells expressing hCX3CR1, 25° C., 24 h. On the procedure: The complete human CX3CR1 cDNA (GenBank accession number U20350) was extracted from human brain mRNA (Superscript, Life Technologies) and ligated into pCR-Blunt II TOPO vector (InVitrogen). The insert corresponding hCX3CR1 was isolated and further subcloned into pcDNA3.1zeo. Plasmid DNA was prepared using Plasmid Midi Kit (Qiagen). Using Superfect Transfection Reagent (Qiagen) according to the manufacturer's protocol the expression plasmid for hCX3CR1 was then introduced into human embryonic kidney suspension (HEKS) 293 cell line containing a vector for stable expression of a chimeric G-protein Gαqi5. A stable clone was generated utilizing zeocin (500 μg/mL) and hygromycin (100 μg/mL) selection. For further applications the cells were maintained in Dulbecco's modified Eagle's medium/Ham's nutrient mix F12 (DMEM/F12) containing pyridoxine and supplemented with 10% (v/v) fetal bovine serum, 2 mM L-glutamine, 100 U/ml penicillin and […] streptomycin, 250 μg/mL zeocin and 100 μg/mL hygromycin.
Cells are grown at 37° C. and 5% CO2 and harvested at 60-80% confluence in buffer containing 10 mM Tris-HCl pH 7.4, 5 mM EDTA, 0.1 mg/mL bacitracin. The cells are centrifuged at 300×g for 10 min and the pellet is resuspended in harvesting buffer (10 mM Tris-HCl, pH 7.4, 5 mM ethylenediaminetetra-aceticacid (EDTA) and 0.1 mg/mL bacitracin), pooled and homogenised using a Dounce homogeniser. The homogenate is centrifuged in 48000×g for 10 min and resuspended in harvesting buffer using Ultra-Turrax T8. Membrane aliquots are stored at −80° C. Protein concentration was determined in microtiter plates as described by Harrington (1990, Anal. Biochem. 186, 285-287).
Competition binding studies of [^125I]fraktalkine were performed in 2 mL 96-deep-well plates (Beckman, Germany) in a total volume of 1000 μL/well. Each well contained 10 pM [^125I]-fractalkine and membrane equivalent to receptor concentration of 1 pM in assay buffer (50 mM Hepes-KOH, pH 7.4, 10 mM MgCl2, 1 mM EDTA, 0.1% (w/v) gelatine). Ten concentrations (2 points/log unit) of the test compounds were pre-dissolved in DMSO and added to reach a final concentration of 1% (v/v) DMSO. The assay was initiated with the addition of membranes and incubated at 25° C. for 24 h. The reactions were stopped by rapid filtration through Whatman GF/B glass fiber filters pretreated with 0.3% polyethylimine and subsequent washing with ice-cold buffer (10 mM Hepes-KOH pH 7.4, 500 mM NaCl) using a Brandel receptor binding harvester. Scintillation cocktail was added and radioactivity was determined in a Packard 2500TR liquid scintillation counter. (Perkin Elmer, USA)
`CC(C)C[C@H](CO)Nc1nc(SC(C)c2ccc(F)cn2)nc2nc(N)sc12` (mixture of isomers) [Example 1, (2R)-2-[(2-Amino-5-{[1-(5-fluoropyridin-2-yl)ethyl]thio}[1,3]thiazolo[4,5-d]pyrimidin-7-yl)amino]-4-methylpentan-1-ol] returned a Ki of 21 nM.

For `CC(C)C[C@H](CO)Nc1nc(S[C@@H](C)c2ncccc2F)nc2nc(N)sc12` [Example 5, (2R)-2-[(2-Amino-5-{[(1S)-1-(3-fluoropyridin-2-yl)ethyl]thio}[1,3]thiazolo[4,5-d]pyrimidin-7-yl)amino]-4-methylpentan-1-ol], the Ki came out at 23 nM.

Turning to `CC(C)C[C@H](CO)Nc1nc(S[C@@H](C)c2ccc(Cl)cn2)nc2nc(N)sc12` [Example 2, (2R)-2-[(2-Amino-5-{[(1S)-1-(5-chloropyridin-2-yl)ethyl]thio}[1,3]thiazolo[4,5-d]pyrimidin-7-yl)amino]-4-methylpentan-1-ol], the affinity, expressed as Ki, was 6.2 nM.

Molecule `CC(C)C[C@H](CO)Nc1nc(S[C@@H](C)c2cc(C#N)ccn2)nc2nc(N)sc12` [Example 8, 2-{(1S)-1-[(2-Amino-7-{[(1R)-1-(hydroxymethyl)-3-methylbutyl]amino}[1,3]thiazolo[4,5-d]pyrimidin-5-yl)thio]ethyl}isonicotinonitrile] came in with a Ki of 81 nM.

Molecule `CCC[C@H](CO)N(C)c1nc(S[C@@H](C)c2ccc(Cl)nc2)nc2nc(N)sc12` [Example 6, (2R)-2-[(2-amino-5-{[(1S)-1-(6-chloropyridin-3-yl)ethyl]thio}[1,3]thiazolo[4,5-d]pyrimidin-7-yl)(methyl)amino]pentan-1-ol] registered a Ki of 203 nM.

The molecule `CC(C)C[C@H](CO)Nc1nc(S[C@@H](C)c2ccncc2Cl)nc2nc(N)sc12` [Example 9b, (2R)-2-[(2-amino-5-{[(1S)-1-(3-chloropyridin-4-yl)ethyl]thio}[1,3]thiazolo[4,5-d]pyrimidin-7-yl)amino]-4-methylpentan-1-ol] had an inhibition constant Ki of 35 nM.

Turning to `CC(C)C[C@H](CO)Nc1nc(S[C@@H](C)c2ccc(F)cn2)nc2nc(N)sc12` (single isomer, unassigned) [Example 3], the Ki was found to be 6.5 nM.

`CCC[C@H](CO)Nc1nc(S[C@@H](C)c2ccc(Cl)nc2)nc2nc(N)sc12` [Example 7, (2R)-2-[(2-Amino-5-{[(1S)-1-(6-chloropyridin-3-yl)ethyl]thio}[1,3]thiazolo[4,5-d]pyrimidin-7-yl)amino]pentan-1-ol] displayed a Ki of 149 nM.
